Converted amounts (≈) assume the structure as drawn.
Tests used:
Citrobacter freundii [1] = assay: microbe, parasite or virus in culture
Description: Minimum inhibitory concentration in Citrobacter freundii, DR 382031 constitutive depressed type 1

Citrobacter freundii [2] = assay: microbe, parasite or virus in culture; remark: listed apart in the source
Description: Minimum inhibitory concentration in Citrobacter freundii, I+382010 inducible type 1 lactamase producer

Providencia stuartii [3] = assay: microbe, parasite or virus in culture
Description: Minimum inhibitory concentration in Pseudomonas stuartii, I+442019 inducible type 1 lactamase producer

[4] = The half life period was tested; format: ADME
Providencia stuartii [5] = assay: microbe, parasite or virus in culture; remark: listed apart in the source
Description: Minimum inhibitory concentration in Pseudomonas stuartii, DR 442049 constitutive depressed type 1 lactamase producer

Pseudomonas aeruginosa [6] = assay: microbe, parasite or virus in culture
Description: Minimum inhibitory concentration in Pseudomonas aeruginosa,799/61 permeability mutant

Pseudomonas aeruginosa [7] = assay: microbe, parasite or virus in culture; remark: listed apart in the source
Description: Minimum inhibitory concentration in Pseudomonas aeruginosa, 18S inducible type 1 lactamase producer

Pseudomonas aeruginosa [8] = assay: microbe, parasite or virus in culture; remark: listed apart in the source
Description: Minimum inhibitory concentration in Pseudomonas aeruginosa,799WT parent organism

[9] = The compound was evaluated for area under the curve; format: ADME
[10] = The compound was tested for % urinary recovery in marmosets at the dose of 3 mg/kg; format: ADME, organism-based; parameters: dose 3 mg/kg; settings: callithrix, urine, read-out: Recovery
Staphylococcus aureus [11] = assay: microbe, parasite or virus in culture
Staphylococcus aureus [12] = assay: microbe, parasite or virus in culture; remark: listed apart in the source
Enterobacter cloacae [13] = assay: microbe, parasite or virus in culture
Description: Minimum inhibitory concentration in Enterobacter cloacae, DR 401108 constitutive depressed type 1 lactamase producer

Escherichia coli [14] = assay: microbe, parasite or virus in culture
Description: In vitro minimum inhibitory concentration against Escherichia coli (DC2 permeability mutant).

Enterobacter cloacae [15] = assay: microbe, parasite or virus in culture; remark: listed apart in the source
Description: Minimum inhibitory concentration in Enterobacter cloacae, P99+ constitutive depressed type 1 lactamase producer

Homo sapiens = species on record: Homo sapiens; assay: Compound is evaluated for serum protein binding in human blood (protein binding in marmoset blood); format: functional
Enterobacter cloacae [16] = assay: microbe, parasite or virus in culture; remark: listed apart in the source
Description: Minimum inhibitory concentration in Enterobacter cloacae, P99- inducible type 1 lactamase producer

Escherichia coli [17] = assay: microbe, parasite or virus in culture; remark: listed apart in the source
Description: In vitro minimum inhibitory concentration against Escherichia coli (DC0 parent organism).

Pseudomonas aeruginosa [18] = assay: microbe, parasite or virus in culture; remark: listed apart in the source
Description: In vitro minimum inhibitory concentration against Pseudomonas aeruginosa (PU21).

Pseudomonas aeruginosa [19] = assay: microbe, parasite or virus in culture; remark: listed apart in the source
Description: Minimum inhibitory concentration in Pseudomonas aeruginosa, 18SH constitutive depressed type 1 lactamase producer

[20] = The compound was evaluated for area under the curve in marmosets; format: ADME; settings: callithrix, in vivo
Enterobacter cloacae [21] = assay: microbe, parasite or virus in culture; remark: listed apart in the source
Description: Minimum inhibitory concentration in Enterobacter cloacae, I+401029 inducible type 1 lactamase producer

[22] = biological target: Beta-lactamase TEM (Escherichia coli) (UniProt P62593); assay: The dissociation constant of compound was tested for beta-Lactamase stability
[23] = The half life period in marmosets; format: ADME; settings: callithrix, in vivo
Pseudomonas aeruginosa [24] = assay: The compound was tested for minimum inhibitory concentration in Pseudomonas aeruginosa,799WT parent organism; format: functional
Staphylococcus aureus [25] = assay: The compound was tested for minimum inhibitory concentration in Staphylococcus aureus,147N penicillin sensitive Staphylococcus aureus; format: functional
Staphylococcus aureus [26] = assay: The compound was tested for minimum inhibitory concentration in Staphylococcus aureus Oxford penicillin sensitive Staphylococcus aureus; format: functional
Pseudomonas aeruginosa [27] = assay: The compound was tested for minimum inhibitory concentration in Pseudomonas aeruginosa,799/61 permeability mutant; format: functional
Providencia stuartii [28] = assay: The compound was tested for minimum inhibitory concentration in Pseudomonas stuartii,I+442019 inducible type 1 lactamase producer; format: functional, pseudomonas stuartiii
Citrobacter freundii [29] = assay: The compound was tested for minimum inhibitory concentration in Citrobacter freundii, Citrobacter freundii, DR 382031; format: functional

Chain of Beta-lactamase TEM (Escherichia coli) (P62593 whole entry): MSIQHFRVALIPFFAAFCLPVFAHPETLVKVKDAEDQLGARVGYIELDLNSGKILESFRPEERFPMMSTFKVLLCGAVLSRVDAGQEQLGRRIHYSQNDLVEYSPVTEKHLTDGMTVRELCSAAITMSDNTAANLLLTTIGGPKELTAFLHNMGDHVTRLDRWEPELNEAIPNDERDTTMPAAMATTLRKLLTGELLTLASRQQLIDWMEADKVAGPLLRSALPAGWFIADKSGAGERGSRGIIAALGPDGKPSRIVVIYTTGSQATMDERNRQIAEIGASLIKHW

SMILES | MIC (Citrobacter freundii [1]) | MIC (Citrobacter freundii [2]) | MIC (Providencia stuartii [3]) | MIC (Providencia stuartii [5]) | MIC (Pseudomonas aeruginosa [6]) | MIC (Pseudomonas aeruginosa [7]) | MIC (Pseudomonas aeruginosa [8]) | dose excreted [10] | MIC (Staphylococcus aureus [11]) | MIC (Staphylococcus aureus [12]) | MIC (Enterobacter cloacae [13]) | MIC (Escherichia coli [14]) | MIC (Enterobacter cloacae [15]) | Activity (Homo sapiens) | MIC (Enterobacter cloacae [16]) | MIC (Escherichia coli [17]) | MIC (Pseudomonas aeruginosa [18]) | MIC (Pseudomonas aeruginosa [19]) | AUC [20] | MIC (Enterobacter cloacae [21]) | also measured
CC(C)(O/N=C(\C(=O)N[C@@H]1C(=O)N2C(C(=O)[O-])=C(C[n+]3ccccc3)CS[C@H]12)c1csc(N)n1)C(=O)O [CEFTAZIDIME] | 128 µg/mL (≈ 234 µM) | 0.125 µg/mL (≈ 0.229 µM) | 0.25 µg/mL (≈ 0.457 µM) | 4 µg/mL (≈ 7.32 µM) | 0.008 µg/mL (≈ 0.0146 µM) | 2 µg/mL (≈ 3.66 µM) | 0.125 µg/mL (≈ 0.229 µM) |  |  |  |  |  |  |  |  |  |  |  |  |  | half-life [4]: 0.7 h; AUC [9]: 14 mg/h/L
CCn1cc(C(=O)NCC2=C(C(=O)O)N3C(=O)[C@@H](NC(=O)/C(=N\OC(C)(C)C(=O)O)c4csc(N)n4)C3SC2)c(=O)c2cc(O)c(O)cc21 (some centres undefined) | 0.125 µg/mL (≈ 0.175 µM) | 0.008 µg/mL (≈ 0.0112 µM) | 0.25 µg/mL (≈ 0.349 µM) | 8 µg/mL (≈ 11.2 µM) | 0.008 µg/mL (≈ 0.0112 µM) | 0.008 µg/mL (≈ 0.0112 µM) | 0.008 µg/mL (≈ 0.0112 µM) | 13.9% | 16 µg/mL (≈ 22.4 µM) | 16 µg/mL (≈ 22.4 µM) | 1 µg/mL (≈ 1.4 µM) | 0.008 µg/mL (≈ 0.0112 µM) | 0.25 µg/mL (≈ 0.349 µM) | 99.2% | 0.06 µg/mL (≈ 0.0838 µM) | 0.008 µg/mL (≈ 0.0112 µM) | 0.06 µg/mL (≈ 0.0838 µM) | 0.008 µg/mL (≈ 0.0112 µM) | 238.5 mg/h/L | 0.06 µg/mL (≈ 0.0838 µM) | pKa [22]: 7.2; half-life [23]: 3.47 h
CC(C)(O/N=C(\C(=O)N[C@@H]1C(=O)N2C(C(=O)O)=C(CNC(=O)c3cnc4cc(O)c(O)cc4n3)CSC12)c1csc(N)n1)C(=O)O (some centres undefined) | 1 µg/mL (≈ 1.49 µM) | 8 µg/mL (≈ 11.9 µM) | 0.25 µg/mL (≈ 0.372 µM) | 8 µg/mL (≈ 11.9 µM) | 0.008 µg/mL (≈ 0.0119 µM) | 0.008 µg/mL (≈ 0.0119 µM) |  |  |  |  | 8 µg/mL (≈ 11.9 µM) |  | 0.5 µg/mL (≈ 0.743 µM) |  | 0.03 µg/mL (≈ 0.0446 µM) |  |  | 0.008 µg/mL (≈ 0.0119 µM) |  | 0.03 µg/mL (≈ 0.0446 µM) | MIC (Pseudomonas aeruginosa [24]): 0.008 µg/mL (≈ 0.0119 µM)
CC(C)(O/N=C(\C(=O)N[C@@H]1C(=O)N2C(C(=O)O)=C(CCCC(=O)c3cc(O)c(O)c(Cl)c3)CSC12)c1csc(N)n1)C(=O)O (some centres undefined) | 2 µg/mL (≈ 2.99 µM) | 0.008 µg/mL (≈ 0.012 µM) | 0.03 µg/mL (≈ 0.0449 µM) | 1 µg/mL (≈ 1.5 µM) | 0.008 µg/mL (≈ 0.012 µM) | 0.008 µg/mL (≈ 0.012 µM) | 0.008 µg/mL (≈ 0.012 µM) |  |  |  | > 32 µg/mL | 0.008 µg/mL (≈ 0.012 µM) | 1 µg/mL (≈ 1.5 µM) |  | 0.03 µg/mL (≈ 0.0449 µM) | 0.008 µg/mL (≈ 0.012 µM) | 0.015 µg/mL (≈ 0.0225 µM) | 0.015 µg/mL (≈ 0.0225 µM) |  | 0.03 µg/mL (≈ 0.0449 µM) | MIC (Staphylococcus aureus [25]): 16 µg/mL (≈ 23.9 µM); MIC (Staphylococcus aureus [26]): 16 µg/mL (≈ 23.9 µM)
CC(C)(O/N=C(\C(=O)N[C@@H]1C(=O)N2C(C(=O)O)=C(CNC(=O)c3ccc(O)c(O)c3)CSC12)c1csc(N)n1)C(=O)O (some centres undefined) | 16 µg/mL (≈ 25.8 µM) | 0.03 µg/mL (≈ 0.0483 µM) | 0.25 µg/mL (≈ 0.403 µM) | 1 µg/mL (≈ 1.61 µM) | 0.008 µg/mL (≈ 0.0129 µM) | 0.008 µg/mL (≈ 0.0129 µM) | 0.008 µg/mL (≈ 0.0129 µM) | 44.8% | 16 µg/mL (≈ 25.8 µM) | 8 µg/mL (≈ 12.9 µM) | > 128 µg/mL | 0.008 µg/mL (≈ 0.0129 µM) | 16 µg/mL (≈ 25.8 µM) | 96.3% | 0.125 µg/mL (≈ 0.201 µM) | 0.008 µg/mL (≈ 0.0129 µM) | 0.015 µg/mL (≈ 0.0242 µM) | 0.06 µg/mL (≈ 0.0967 µM) | 27.2 mg/h/L | 0.125 µg/mL (≈ 0.201 µM) | pKa [22]: 8.5; half-life [23]: 1.25 h
CCn1cc(C(=O)NCC2=C(C(=O)O)N3C(=O)[C@@H](NC(=O)/C(=N\OC(C)(C)C(=O)O)c4csc(N)n4)C3SC2)c(=O)c2c(C#N)c(O)c(O)cc21 (some centres undefined) |  | 0.008 µg/mL (≈ 0.0108 µM) |  |  |  | 0.008 µg/mL (≈ 0.0108 µM) |  |  |  |  | 0.5 µg/mL (≈ 0.675 µM) |  | 0.015 µg/mL (≈ 0.0203 µM) |  | 0.015 µg/mL (≈ 0.0203 µM) |  |  | 0.008 µg/mL (≈ 0.0108 µM) |  | 0.015 µg/mL (≈ 0.0203 µM) | MIC (Pseudomonas aeruginosa [27]): 0.008 µg/mL (≈ 0.0108 µM); MIC (Providencia stuartii [28]): 0.008 µg/mL (≈ 0.0108 µM); pKa (physchem): < 5.5; MIC (Citrobacter freundii [29]): 0.03 µg/mL (≈ 0.0405 µM); MIC (Pseudomonas aeruginosa [24]): 0.008 µg/mL (≈ 0.0108 µM)

Reference: ChEMBL document CHEMBL1126299, “Synthesis and structure-activity relationships of cephalosporins with C-3' catechol-containing residues” (J Med Chem, 1992)
